# Assays:
# human orexin-1 receptor = molecular target: T1, human orexin-1 receptor (Homo sapiens, UniProt O43613); experiment: Intracellular calcium measurements (FLIPR), orexin-A induced, CHO cells expressing human orexin-1 receptor; format: cell-based; conditions: 10 nM orexin-A as agonist, read-out: IC50 OX1
# T1 construct: expressed in transfected cells; host or cells: CHO cells (G418 selection)
# T1 sequence (O43613 1-425): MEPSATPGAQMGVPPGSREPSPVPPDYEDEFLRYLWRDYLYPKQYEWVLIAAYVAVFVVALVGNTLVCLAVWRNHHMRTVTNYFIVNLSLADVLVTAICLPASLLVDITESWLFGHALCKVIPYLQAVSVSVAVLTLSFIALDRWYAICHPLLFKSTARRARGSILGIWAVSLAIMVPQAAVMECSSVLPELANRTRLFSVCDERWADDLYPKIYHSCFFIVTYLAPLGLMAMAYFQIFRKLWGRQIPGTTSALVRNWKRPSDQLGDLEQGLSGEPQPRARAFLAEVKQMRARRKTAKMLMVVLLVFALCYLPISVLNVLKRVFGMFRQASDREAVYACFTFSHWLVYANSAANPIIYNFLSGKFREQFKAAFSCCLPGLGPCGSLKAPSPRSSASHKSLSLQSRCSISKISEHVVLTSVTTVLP
# Procedure: (§1) The orexin receptor antagonistic activity of the compounds of formula (I) and/or (Ia) is determined in accordance with the following experimental method.
# (§2) Intracellular Calcium Measurements:
# (§3) Chinese hamster ovary (CHO) cells expressing the human orexin-1 receptor and the human orexin-2 receptor, respectively, are grown in culture medium (Ham F-12 with L-Glutamine) containing 300 μg/ml G418, 100 U/ml penicillin, 100 μg/ml streptomycin and 10% inactivated fetal calf serum (FCS). The cells are seeded at 80'000 cells/well into 96-well black clear bottom sterile plates (Costar) which have been precoated with 1% gelatine in Hanks' Balanced Salt Solution (HBSS). All reagents are from Gibco BRL. The seeded plates are incubated overnight at 37° C. in 5% CO2.
# (§4) Human orexin-A as an agonist is prepared as 1 mM stock solution in methanol:water (1:1), diluted in HBSS containing 0.1% bovine serum albumin (BSA) and 2 mM HEPES for use in the assay at a final concentration of 10 nM.
# (§5) Antagonists are prepared as 10 mM stock solution in DMSO, then diluted in 96-well plates, first in DMSO, then in HBSS containing 0.1% bovine serum albumin (BSA) and 2 mM HEPES.
# (§6) On the day of the assay, 100 μl of loading medium (HBSS containing 1% FCS, 2 mM HEPES, 5 mM probenecid (Sigma) and 3 μM of the fluorescent calcium indicator fluo-3 AM (1 mM stock solution in DMSO with 10% pluronic acid) (Molecular Probes) is added to each well.
# (§7) The 96-well plates are incubated for 60 min at 37° C. in 5% CO2. The loading solution is then aspirated and cells are washed 3 times with 200 μl HBSS containing 2.5 mM probenecid, 0.1% BSA, 2 mM HEPES. 100 μl of that same buffer is left in each well.
# (§8) Within the Fluorescent Imaging Plate Reader (FLIPR, Molecular Devices), antagonists are added to the plate in a volume of 50 μl, incubated for 20 min and finally 100 μl of agonist is added. Fluorescence is measured for each well at 1 second intervals, and the height of each fluorescence peak is compared to the height of the fluorescence peak induced by 10 nM orexin-A with buffer in place of antagonist. For each antagonist, IC50 value (the concentration of compound needed to inhibit 50% of the agonistic response) is determined. Antagonistic activities of compounds are in the nanomolar range with respect to OX1 and OX2 receptors.
# human orexin-2 receptor = molecular target: T2, human orexin-2 receptor (Homo sapiens, UniProt O43614); experiment: Intracellular calcium measurements (FLIPR), orexin-A induced, CHO cells expressing human orexin-2 receptor; format: cell-based; conditions: 10 nM orexin-A as agonist, read-out: IC50 OX2
# T2 construct: expressed in transfected cells; host or cells: CHO cells (G418 selection)
# T2 sequence (O43614 1-444): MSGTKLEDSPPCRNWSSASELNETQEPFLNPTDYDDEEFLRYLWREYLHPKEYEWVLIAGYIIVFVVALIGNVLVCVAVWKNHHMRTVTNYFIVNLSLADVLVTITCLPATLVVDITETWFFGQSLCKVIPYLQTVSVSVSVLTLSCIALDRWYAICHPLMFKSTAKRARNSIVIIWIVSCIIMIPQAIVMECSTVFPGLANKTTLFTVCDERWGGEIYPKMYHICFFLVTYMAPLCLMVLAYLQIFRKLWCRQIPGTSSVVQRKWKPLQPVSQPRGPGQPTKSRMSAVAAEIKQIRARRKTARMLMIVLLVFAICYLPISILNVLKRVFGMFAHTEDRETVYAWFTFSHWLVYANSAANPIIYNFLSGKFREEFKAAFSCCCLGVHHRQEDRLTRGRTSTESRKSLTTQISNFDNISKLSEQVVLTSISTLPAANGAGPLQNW
# Procedure: as §1, §2, §3, §4, §5, §6, §7, §8
SMILES,IC50 (human orexin-1 receptor) [nM],IC50 (human orexin-2 receptor) [nM]
"CCn1nc(C)c2c1CCN([C@@H](C(=O)NC)c1ccccc1)[C@H]2CCc1ccc(C)cc1 (stereo in doubt) [Example 6, 2-[1-Ethyl-3-methyl-4-(2-p-tolyl-ethyl)-1,4,6,7-tetrahydro-pyrazolo[4,3-c]pyridin-5-yl]-N-methyl-2-phenyl-acetamide]",75,4
"CCn1nc(C)c2c1CCN(C(C(=O)NC)c1ccccc1)C2CCc1cc(C(F)(F)F)ccc1F (stereo not drawn) [Example 3, 2-{1-Ethyl-4-[2-(2-fluoro-5-trifluoromethyl-phenyl)-ethyl]-3-methyl-1,4,6,7-tetrahydro-pyrazolo[4,3-c]pyridin-5-yl}-N-methyl-2-phenyl-acetamide]",49,3
"CCn1nc(C)c2c1CCN([C@@H](C(=O)NC)c1ccccc1)[C@H]2CCc1ccc(C(F)(F)F)cc1F [Example 31, 2-{1-Ethyl-4-[2-(2-fluoro-4-trifluoromethyl-phenyl)-ethyl]-3-methyl-1,4,6,7-tetrahydro-pyrazolo[4,3-c]pyridin-5-yl}-N-methyl-2-phenyl-acetamide]",52,8
"CCn1nc(C)c2c1CCN([C@@H](C(=O)NC)c1ccccc1)[C@H]2CCc1ccc(C)c(F)c1 [Example 32, 2-{1-Ethyl-4-[2-(3-fluoro-4-methyl-phenyl)-ethyl]-3-methyl-1,4,6,7-tetrahydro-pyrazolo[4,3-c]pyridin-5-yl}-N-methyl-2-phenyl-acetamide]",49,2

# Continued, values first:
IC50 (human orexin-1 receptor) [nM],IC50 (human orexin-2 receptor) [nM],SMILES
20,4,"CCn1nc(C)c2c1CCN([C@@H](C(=O)NC)c1ccccc1)[C@H]2CCc1ccc(C)c(C)c1 [Example 33, 2-{4-[2-(3,4-Dimethyl-phenyl)-ethyl]-1-ethyl-3-methyl-1,4,6,7-tetrahydro-pyrazolo[4,3-c]pyridin-5-yl}-N-methyl-2-phenyl-acetamide]"
131,7,"CCn1nc(C)c2c1CCN([C@@H](C(=O)NC)c1ccccc1)[C@H]2CCc1ccc(C)cc1C [Example 35, 2-{4-[2-(2,4-Dimethyl-phenyl)-ethyl]-1-ethyl-3-methyl-1,4,6,7-tetrahydro-pyrazolo[4,3-c]pyridin-5-yl}-N-methyl-2-phenyl-acetamide]"

# Reference: patent US7834028B2, “Pyrazolo-tetrahydro pyridine derivatives as orexin receptor antagonists” (Actelion Pharmaceuticals Ltd., priority 2006, dated 2010)
